According to patent US9675564B2, “Composition based on ubidecarenone” (Asoltech Srl, priority 2011, dated 2017):
Values after ≈ are worked out from the molar mass of the structure shown.

What was measured:
[1] = test system: H9C2 cells; test: Absorption in cardiomyoblasts: intracell penetration and penetration of the mitochondrial membrane, CoQ10 quantified by HPLC; type: cell-based, rats; settings: cultured cells after administration; FIG. 2
Procedure: Despite the large number of clinical studies on the effects of Coenzyme Q10 supplementation, there are very few experimental data concerning the content of coenzyme Q10 in mitochondria and the cell energy condition after supplementation. Probably, controversial results of clinical and in vitro studies are mainly due to the bio-availability of the form of coenzyme Q10 used.
For this analysis, T67 cells of human astrocytoma and H9C2 cells from rats, deriving from the heart, were cultured in a Dulbecco's modified Eagle medium (DMEM), supplemented with 10% of fetal bovine serum (FBS), 100 Ul/ml of penicillin, 100 μg/ml of streptomycin and 40 μg/ml of gentamicin, in an atmosphere of 5% CO2 at 37° C., with saturation humidity. The vitality of the cells and their number were measured using the exclusion method with Tripan blue (Lowry et al.). The mitochondria were isolated using known procedures (Chomyn, 1996). The cells treated were washed carefully with PBS before the extraction procedures. The extraction of the coenzyme Q10 from the isolated cells and mitochondria was performed as described by Takada et al. (Takada et al., 1984). The quantification of the coenzyme Q10 was done by means of HPLC analysis. […]

[2] = Solubility in water at 37° C. (excess powder, CoQ10 passing into solution by UV or HPLC); type: physicochemical; settings: thermodynamic from solid
Procedure: The solubility in water at 37° C. (physiological temperature) of the composition according to the present invention was compared with that of the compositions in the examples of comparison.
Verification is carried out after 1 hour and 24 hours (balanced) using the suitable analytical method (for example UV or HPLC spectrophotometry) of the maximum quantity of coenzyme Q10 that passes into the solution.

CoQ10 passing from the whole cells to the mitochondria [1]: 4%
solubility at 1 h ([2]; after 1 hour): 1 µg/mL (≈ 1.16 µM)
solubility at 24 h ([2]; after 24 hours (balanced)): 4 µg/mL (≈ 4.63 µM)
Compound: COC1=C(OC)C(=O)C(C/C=C(\C)CC/C=C(\C)CC/C=C(\C)CC/C=C(\C)CC/C=C(\C)CC/C=C(\C)CC/C=C(\C)CC/C=C(\C)CC/C=C(\C)CCC=C(C)C)=C(C)C1=O [CoQ10, ubidecarenone]
